In brackets after ≈: the same amount, converted by molar mass. Several values for one entry are separate records, joined by “and”; a condition that tells them apart may be missing. Equal values may be shown once. Where a name gives a salt, the structure may show the parent alone. Read-outs that look alike come from different tables or passages of the source.

For series [1], the system named is rat. Particulars: cited from earlier work.
The subject of series [2] is mouse. The conditions noted are these: cited from earlier work.
Series [3] deals with dog. The conditions noted are these: cited from earlier work.
The test system of series [4] is Kunming mice. Briefly: Effect on mouse's spontaneous activities. The class given is in vivo. The conditions noted are these: positive control 2 mg/kg. The protocol:
(Bibliography: 1. Xu, Shuyun Pharmacological Test Methodology, 2nd version, P.641, People Health Press, Beijing, 1991. 2. Medicine Secretary for the Ministry of Health, Guidelines on Preclinical Study of New Pharmaceuticals (weaten drugs), P. 42, July, 1993.) • 1. […] Effect on mouse's spontaneity times: (see Table 15).
Effect on the frequency of mice' spontaneous activities: healthy mice, and 50 mice whose frequency of activities was 220-320 within 5 min were selected and randomly divided into five groups, the establishment of dosages were the same as the above. The frequency of activity at o min were measured before drug administration, and then were conducted by intragastric administration, 30, 60, 120 and 180 min later, the frequency of activities within 5 min was measured and recorded respectively, then compared with that of the control group. The measuring time was the period between 9:00 am and 4:00 pm each day. A Six-light channel spontaneous activity instrument was used for one mouse, kept at 24-26° C. of room temperature of; and kept quiet; the test was carried out after the test boxes were covered with black cloth.

Series [5] can be described thus: physchem. The conditions noted are these: phosphate buffer, 25 °C, pH 6.86, aqueous buffer, thermodynamic from solid.
The nature of series [6]: Solubilizing test of puerarin. The class given is physicochemical. Particulars: 25 °C, pH 6.86, aqueous buffer, thermodynamic from solid. The source says: The standard curve was plotted by concentration C against A (μg/mL) to obtain A=66.608 C+0.0017 R2=0.9999.
The test system of series [7] is red blood cells. Briefly: Hemolytic test. It is filed as cell-based. The conditions noted are these: 5% rabbit red blood cell suspension, 37° C., 30 min. As to the method: Under the present invention, using β-CD, HP-β-CD, SBE7-β-CD, SBE4-β-CD as controls, the hemolytic test results of 11 kinds of compounds are selected, shown in Table 13 and FIG. 9-FIG. 11.
10 ml of fresh rabbit blood were fetched to a clean conical flask, stirred with glass rod for 10 min to remove the fibers, then added with about 20 times of normal saline solution and placed in the centrifuge, 1500 rps/min, for about 3 min, then the supernatant was removed, washed repeated for several times until the supernatant solution becomes clear. The prepared red blood cells were prepared to 5% of suspension by normal saline solution. (Reference: State Drug Administration, Technical requirement of TCM injection study, Technical requirement of TCM new drug study, 1999, 11, 12)

The nature of series [8]: Inclusion constant with puerarin, UV spectrophotometry. The class given is binding. Particulars: PBS pH 6.86, 250 nm. The source says:
PBS of PH6.86 was used to prepare puerarin dilute solution, and this dilute solution was used to prepare HP4-SBE2-β-CD sample solution. […] A straight line by 1/ΔA against 1/[CD]0 was plotted, and the inclusion constant Ka of puerarin/HP4-SBE2-β-CD can be obtained according to the value of intercept/slope.

The conditions of series [9]: 10-100.0 mg/kg; cited from earlier work.
In series [10] the test system is mouse. Particulars: 40 mg/kg, 120 mg/kg and 400 mg/kg; cited from earlier work.
Series [11] concerns mouse stomach intestine. Particulars: 120 mg/kg and 400 mg/kg; cited from earlier work.
Series [12] is described as follows: Inclusion constant with ibuprofen, UV spectrophotometry. It is filed as binding. Particulars: PBS pH 6.86, 265 nm.
The nature of series [13]: Inclusion constant with prazosin hydrochloride, UV spectrophotometry. It is filed as binding. Particulars: PBS pH 6.86, 250 nm. The source says: PBS of PH6.86 was used to prepare hydrochloride prazosin dilute solution, and this dilute solution was used to prepare HP4-SBE2-β-CD sample solution. […] A line by 1/ΔA against 1/[CD]0 was plotted, and the inclusion constant Ka of prazosin hydrochloride/HP4-SBE2-β-CD can be obtained according to the value of intercept/slope.

Regarding `CC(O)CCO` (stereo not drawn) [1,3-Butylene glycol], the LD50 in [1] (Oral) is 22.8 mg/kg and 23.31 mg/kg; in [1] (subcutaneous injection), 20.06 mg/kg and 16.51 mg/kg.

Take `OCc1ccccc1` [Benzyl alcohol]: the LD50 in [1] (Oral) was 1230 mg/kg; in [2] (Oral), 1580 mg/kg.

In the case of `O=C(OCc1ccccc1)c1ccccc1` [Benzyl benzoate], the figures for the LD50 in series [2] (Oral) and in series [2] (cutaneous absorption) were 1400 mg/kg and 4000 mg/kg, respectively.

Take `CN(C)C=O` [DMF]: the LD50 is 2800 mg/kg in [2] (Oral), 1400 mg/kg in [2] (intraperitoneal injection) and 2000 mg/kg in [2] (intravenous injection). For the same compound, the LDLo in [2] (subcutaneous injection) is listed as 1000 mg/kg.

Turning to `C[S+](C)[O-]` [DMSO], the LD50 in series [2] (Oral) was 16500 mg/kg; in series [2] (intraperitoneal injection) it was 3000 mg/kg; in [2] (intravenous injection), 5750 mg/kg; in series [2] (subcutaneous injection), 14 mg/kg.

In the case of `CC(=O)OCC(COC(C)=O)OC(C)=O` [Glyceryl triacetate], in [2] (subcutaneous injection), the LD50 was 2670 mg/kg and 3250 mg/kg.

For `OC[C@@H](O)[C@@H](O)[C@H](O)[C@H](O)CO` [Mannitol], the LD50 in [1] (Oral) is 17 mg/kg; in series [2] (Oral) it was 22 mg/kg; in series [2] (intraperitoneal injection), 14 mg/kg; in [2] (intravenous injection), 17 mg/kg.

For the compound `CC(O)CO` (stereo not drawn) [Propylene glycol], the results for the LD50 in series [3] (Oral) and in series [3] (intravenous injection) were 22 mg/kg and 26 mg/kg, respectively.

For the compound `CCC(C)(C)O` [amyl alcohol-tert], the LD50 in [1] (Oral) is listed as 1000 mg/kg; in [2] (subcutaneous injection), 2100 mg/kg.

As to `CN(C)CCCN1c2ccccc2Sc2ccc(Cl)cc21` [chloropromazine], the “frequency of spontaneous activities” value in series [4] (0 min) was found to be 302 ± 75 times/5 min; in [4] (30 min) it was 57 ± 40 times/5 min; in series [4] (60 min) it was 16 ± 20 times/5 min; in [4] (120 min), 22 ± 19 times/5 min; in series [4] (180 min), 25 ± 28 times/5 min.

Take `CCOC(=O)C(C)O` (stereo not drawn) [ethyl lactate]: the LD50 is 0.6 (ml) in series [2] (intravenous injection) and 2.5 (ml) in series [2] (subcutaneous injection).

Regarding `COc1cc2nc(N3CCN(C(=O)c4ccco4)CC3)nc(N)c2cc1OC` [prazosin hydrochloride], in series [5], the solubility at 12 h was 0.0495 µg/mL.

Consider `O=c1c(-c2ccc(O)cc2)coc2c([C@@H]3O[C@H](CO)[C@@H](O)[C@H](O)[C@H]3O)c(O)ccc12` [puerarin], for which the concentration in solution in series [6] (solubility at 12 h) was 5800 µg/mL (≈ 13.9 mM).

On to `OC[C@H]1O[C@@H]2O[C@H]3[C@H](O)[C@@H](O)[C@@H](O[C@H]4[C@H](O)[C@@H](O)[C@@H](O[C@H]5[C@H](O)[C@@H](O)[C@@H](O[C@H]6[C@H](O)[C@@H](O)[C@@H](O[C@H]7[C@H](O)[C@@H](O)[C@@H](O[C@H]8[C@H](O)[C@@H](O)[C@@H](O[C@H]1[C@H](O)[C@H]2O)O[C@@H]8CO)O[C@@H]7CO)O[C@@H]6CO)O[C@@H]5CO)O[C@@H]4CO)O[C@@H]3CO` [β-CD, β-cyclodextrin], for which, in series [7], the “Concentration when the degree of hemolysis of 50 percent” value was 1140 µg/mL and the concentration without hemolysis was 280 µg/mL. The LD50 in series [2] (intraperitoneal injection) is recorded as 788 mg/kg.

As to PEG400, the LD50 in series [2] (intraperitoneal injection) is 4200 mg/kg; in series [2] (subcutaneous injection), 10 (ml).

As to Sodium deoxycholate, the LD50 in [2] (Oral) is on record as 815 mg/kg; in series [2] (intraperitoneal injection), 1400 mg/kg; in [2] (subcutaneous injection), 75 mg/kg.

For hydroxypropyl-β-CD [HP-β-CD], the “inclusion constant Ka” value in [8] amounted to 345; in series [12] it was 221; in [13] it was 597. Further, the “Concentration when the degree of hemolysis of 50 percent” value in series [7] was determined as 12610 µg/mL. The compound also showed a concentration without hemolysis in [7] of 8160 µg/mL. In addition, the “effect on respiratory amplitude, respiratory frequency, blood pressure and ECG” value in series [9] is listed as “no obvious effect”. In series [10], the “effect on mouse fasting blood glucose” value is recorded as “no obvious effect on mouse fasting blood glucose”. For the same compound, the “impellent function of mouse stomach intestine” value in [11] is “slight reduction”.

By solubility is commonly meant the concentration that dissolves in the medium under given conditions.

(Values after patent publication US8278437B2, “Hydroxypropyl-sulfobutyl-beta-cyclodextrin, the preparation method, the analytical method, and the pharmacutical application thereof” (priority 2005, dated 2012).)
